Assay results published in ChEMBL document CHEMBL3272304, “Syntheses of heterocylic fused thiazole acetic acids. 2” (1976).
The source made the active and inactive calls. The calls are words filed in the database; no cut-off is given here.

How the values were obtained:
Type in all cases: functional
[1] = system: Mycobacterium tuberculosis; assay: Antitubercular activity against Mycobacterium tuberculosis H37Rv
[2] = system: Lewis lung carcinoma cell line; assay: Antimetastatic activity against mouse LLC cells allografted in BDF1 mouse assessed as increase in host survival
Mus musculus = assay: Antidepressant activity in po dosed mouse assessed as antagonism of reserpine-induced ptosis
[3] = system: Lewis lung carcinoma cell line; assay: Antimetastatic activity against mouse LLC cells allografted in BDF1 mouse assessed as increase in host survival at 150 mg/kg relative to control

Row | Compound | Activity [1] [µg/mL] | ED50 (Mus musculus) [mg/kg] | further results
1 | NNC(=O)c1ccncc1 [ISONIAZID] | 0.005 |  | 
2 | COC(=O)CC(Sc1nc2ccccc2[nH]1)C(=O)c1ccc(Cl)cc1 (configuration not stated) | 1 |  | 
3 | COC(=O)CC1Sc2nc3ccccc3n2C1(O)c1ccc(Cl)cc1 (configuration not stated) | 2 |  | Activity [2]: Active
4 | Br.CCOC(=O)CC1SC2=NCCN2C1(O)c1ccc(Cl)cc1 (configuration not stated) | 5 |  | 
5 | Br.CCOC(=O)CC1SC2=NCCCN2C1(O)c1ccc(Cl)cc1 (configuration not stated) |  | 0.118 | 
6 | Br.COC(=O)CC1SC2=NCCN2C1(O)c1ccccc1 (configuration not stated) | 5 | 0.5 | 
7 | CCOC(=O)CC1Sc2nc(=O)cc(NC(C)=O)n2C1(O)c1ccc(Cl)cc1 (configuration not stated) | 1 |  | 
8 | Br.COC(=O)CC1Sc2nc3ccccc3n2C1(O)c1ccccc1 (configuration not stated) | 5 |  | 
9 | O=C(O)CC1Sc2nc3ccccc3n2C1(O)c1ccc(Cl)cc1 (configuration not stated) |  |  | T/C [3]: 37%
10 | Br.O=C(O)CC1SC2=NCCN2C1(O)c1ccc(Cl)cc1 (configuration not stated) |  | 0.22 | 
11 | CCOC(=O)CC(Sc1nc2ccccc2[nH]1)C(=O)c1ccc(Cl)cc1 (configuration not stated) | 1 |  | 
12 | Br.CCOC(=O)CC1SC2=NCCN2C1(O)c1ccccc1 (configuration not stated) | 5 | 0.27 | 
13 | CCOC(=O)CC1Sc2nc3ccccc3n2C1(O)c1ccc(Cl)cc1 (configuration not stated) | 1 |  | Activity [2]: Active
14 | O=C(O)Cc1sc2nc3ccccc3n2c1-c1ccc(Cl)cc1 |  |  | Activity [2]: Active
15 | Br.COC(=O)CC1SC2=NCCN2C1(O)c1ccc(Cl)cc1 (configuration not stated) | 1 | 0.5 | 
16 | Br.O=C(O)CC1SC2=NCCCN2C1(O)c1ccc(Cl)cc1 (configuration not stated) |  | 0.25 | Activity [2]: inactive
